Results as given in patent US4419364A, “Bronchospasmolytic carbamate derivatives” (priority 1980, dated 1983).
Several values for one entry are separate records, joined by “and”; a condition that tells them apart may be missing. Identical values can stand only once. Entries after “also recorded” stand apart in the source; their conditions may differ. Counter-ions that a name gives are not always drawn. Like-named read-outs stand apart in the source and are kept apart here.

Experiments:
[1] = cited from earlier work; for Duration of bronchospasmolytic activity, in words: relative to a marketed comparator
[2] = In vitro test on isolated guinea-pig auricles (chronotropic and inotropic effect); set-up: species or system guinea-pig (Dunkin Hartley, male); details: guinea pig, isolated auricles; relative values; eserine 1·10^-6 mol/l; read-out: Chronotropic effect on isolated auricle (relative values)
Procedure: (§1) Male guinea-pigs strain Dunkin Hartley (400-500 g) were used. After bleeding and removal of the heart the auricles were dissected free from the ventricular part and submerged into carbogen aerated Krebs solution of 37°. The frequency and force of the spontaneously beating preparation was recorded by a Grass transducer FT03. In the polygraph (Grass 7D) the signals from the isometric transducer passed a trigger function from the drive amplifier to the tachograph to record the rate.
(§2) The esterase inhibitor eserine was added to a concentration of 1·10^-6 mol/l in the organ bath before the drugs to be tested were added. The intrinsic activity of the test compounds on the heart preparation, that is their effect on heart rate (chronotropic effect) and their effect on the force of the heart beats (inotropic effect), and their possible interaction with terbutaline was studied.

[3] = test system: isolated auricles from guinea-pig heart; assay: as above; set-up: species or system guinea-pig (Dunkin Hartley, male)
Procedure: as §1, §2

[4] = test system: histamine-induced bronchospasm in unanaesthetized guinea-pigs; assay: Protecting effect against histamine-induced bronchospasm after oral administration in guinea-pigs; format: in vivo, guinea-pigs (Dunkin-Hartley, male); details: for ED50: Cavia porcellus, 0.05 h, histamine aerosol, read-out: Dose protecting 50% of the test animals for more than 3 minutes (ED50)
Procedure: Male guinea-pigs, Dunkin-Hartley strain, 150-200 g, were used in the study. The animals were starved for about 15 hours (water ad libitum) before the administration, by a stomach tube, of test compound or vehicle (controls). To establish an adequate time period between administration and histamine exposure, the maximum plasma level of terbutaline produced from the hydrolysis of the given pro-drugs of terbutaline was determined. Thus, blood samples (in pre-experimental series) were collected from guinea-pigs at different times after the administration of the test compound and the plasma level of tarbutaline was determined by a massfragmentographic analysis. A peak in the plasma turbutaline was noted 50-60 minutes after the administration, and this time was selected as time for start of histamine exposure.
The histamine aerosol was generated by Bird inline nebulizers from a solution containing 0.02% histamine-HCl and 3% glycerole. The protecting effect was estimated from the delay in appearance of signs of anoxia in drug-treated animals. […] Drug-treated guinea-pigs without any signs of respiratory influence from the histamine during these first 3 minutes were denoted as protected.

[5] = Duration of serum levels of terbutaline after oral administration of test compounds to unanaesthetized dogs; format: in vivo, dogs (Beagle, male); details: for concentration at 1 h: 1 hour after administration; for concentration at 2 h: 2 hours after administration; for concentration at 3 h: 3 hours after administration; for concentration at 4 h: 4 hours after administration; for concentration at 6 h: 6 hours after administration
Procedure: (§3) Five dogs (Beagle, .male., 13-18 kg) have been used repeatedly in the study. Each dog was used at most once a week. Food was withheld from the animals the night before the experiment (water ad libitum). The test compound was dissolved in 8 ml of distilled water, and delivered into the back of the mouth by use of a syringe and a short tube. This oral supply was followed by a water rinse of 8 ml.
(§4) The blood was collected from the cephalic veins in the forelegs by use of evacuated tubes. The esterase inhibitor diisopropylfluophoshate (DFP) was added, the samples centrifugated (+5°) and the amount of terbutaline in plasma determined by a massfragmentographic analysis method. The serum level of terbutaline indicates the degree of bronchospasmolytic effect of the test compounds.
(§5) The amounts of the test substances to be administered were selected so that the level of terbutaline corresponds to the serum levels obtained and found effective in patients at clinical use, that is a level of terbutaline of at least 2 ng/ml serum for 6 to 8 hours. The doses of the test substances of the invention were selected so that the serum levels of terbutaline obtained would correspond approximately with the serum levels obtained after administration of terbutaline per se.
The test results are given in Table 1 below, where the time course of the serum level of terbutaline in the test animals is given. Each set of serum levels is the result of test in one dog. The boxed time interval represents the interval where a clinically effective serum level of terbutaline is obtained. Thus, the boxed interval represents the clinically useful duration of the test compounds.

heart rate in dogs = assay: In vivo test on the effect on the heart rate in dogs; set-up: species or system dogs (Beagle, male); details: oral; for Slope of the line of increase in heart rate vs. logarithm of corresponding serum conc.: serum conc. of terbutaline; for Slope of the line of increase in heart rate vs. logarithm of corresponding serum conc. / Correlation coefficient (increase in heart rate vs. logarithm of serum conc.): terbutaline 0.01-0.1 mg/kg, test compound 0.3-3 mg/kg
Procedure: as §3, with “solved” for “dissolved”
as §4, with “diisopropylfluophosphate” for “diisopropylfluophoshate”
as §5, with “level of terbutaline, when administered per se, corresponds to” for “level of terbutaline corresponds to”
The heart rate was determined by a stethoscope (the mean of three determinations during a 5-minute periode) before the administration of drug and before each blood sampling.
The relative effect of the test compounds on the heart rate of the test animals was illustrated by plotting in a diagram the increase in heart rate measured at a certain serum concentration of terbutaline versus the logarithm of the said terbutaline concentration in serum. Only values before and up to the maximal increase in heart rate were used. This method will produce a graph consisting of a substantially straight line. When such a line is drawn from each test compound, it can be seen from the slope of the line how the heart rate is correlated to the serum concentration of the test compound.

[6] = test system: isolated tracheal muscle from guinea-pig; assay: In vitro test on isolated guinea-pig trachea (relaxation of pilocarpine-contracted trachea); details: for EC50: Cavia porcellus, pilocarpine-contracted, eserine 1·10^-6 mol/l, read-out: Concentration of test substance producing 50% relaxation of the trachea (EC50)
Procedure: The trachea from guinea-pigs was dissected out, cut spirally and transferred to a 10 ml organ bath containing Krebs solution of 37° and aerated with carbogen. The tracheal strip was contracted by pilocarpine (4·10^-6 mol/l) producing a tension of about 1.5 g. Isometric recording was made by use of a transducer FT03 and Grass polygraph 7D. Before the administration of the test compound the esterase inhibitor eserin was added to the bath in a concentration of 1·10^-6 mol/l. The concentration of the test substances which produces 50% relaxation (EC50) of the pilocarpine contracted trachea was recorded as well as potentiating or inhibiting influence of the test substances of the invention on the relaxing effect of terbutaline. In this last mentioned test the muscle preparation was pretreated with the test compounds during 5 minutes, before the response of terbutaline was recorded.

[7] = dog, serum, po, 0.03 mg/kg, read-out: Serum level of terbutaline
[8] = dog, serum, po, 0.1 mg/kg, read-out: Serum level of terbutaline

## Cc1ccc(C(=O)Oc2ccc(C(O)CNC(C)(C)C)cc2OC(=O)c2ccc(C)cc2)cc1 (stereo not shown) [bitolterol]
[1]
  Duration of bronchospasmolytic activity, in words: comparable with that of salbutamol

## CC(C)(C)NCC(O)c1ccc(O)c(CO)c1 (stereo not drawn) [salbutamol, α-(tert.)-butylaminomethyl-4-hydroxy-m-xylene-α-diolsulphate]
[1]
  Duration of bronchospasmolytic activity, in words: about equal to the duration of terbutaline

## CC(C)(C)NCC(O)c1cc(O)cc(O)c1 (stereo not shown) [terbutaline, 1-(3',5'-dihydroxyphenyl)-2-t-butylaminoethanol sulphate]
[2]
  Emax: 100%
[3]; relative values, eserine 1·10^-6 mol/l
  Inotropic effect on isolated auricle (relative values): 1.0
[4]
  ED50: 0.4 mg/kg and 1.5 µmol/kg
[5]; [7]
  concentration at 1 h: 4.8 ng/mL
  concentration at 2 h: 2.9 ng/mL
  concentration at 3 h: 2.4 ng/mL
  concentration at 4 h: 2.2 ng/mL
  concentration at 6 h: 1.9 ng/mL
[5]; [8]
  concentration at 1 h: 5.7 ng/mL
  concentration at 2 h: 13.7 ng/mL
  concentration at 3 h: 9.2 ng/mL
  concentration at 4 h: 6.1 ng/mL
  concentration at 6 h: 3.4 ng/mL
[5]; dog, serum, po, 0.1 mg/kg, 8 hours after administration, read-out: Serum level of terbutaline
  concentration at 8 h: 2.2 ng/mL
[5]; dog, serum, po, 0.1 mg/kg, 12 hours after administration, read-out: Serum level of terbutaline
  concentration at 12 h: 1.1 ng/mL
[5]; dog, serum, po, 0.1 mg/kg, 16 hours after administration, read-out: Serum level of terbutaline
  concentration at 16 h: 0.8 ng/mL
[5]; dog, serum, po, 0.1 mg/kg, 24 hours after administration, read-out: Serum level of terbutaline
  concentration at 24 h: 0.35 ng/mL
[1]; Hornblad et al. (1976)
  Serum concentration of terbutaline necessary for desired therapeutic activity: at least 2 ng/ml
[1]; normally obtained at clinical use of terbutaline, 2 ng/ml
  Duration of terbutaline serum level at clinical use: about 8 hours
Heart rate in dogs
  Slope of the line of increase in heart rate vs. logarithm of corresponding serum conc.: 1.04
  Correlation coefficient (increase in heart rate vs. logarithm of serum conc.): 0.9598
[6]
  EC50: 210 ± 50 nM

## CN(C)C(=O)Oc1cc(OC(=O)N(C)C)cc(C(O)CNC(C)(C)C)c1 (stereo not shown) [I, 1-[bis-(3',5'-N,N-dimethylcarbamoyloxy)phenyl]-2-N-tert.butylaminoethanol hydrochloride]
[2]
  Emax: 0%
[3]; isolated guinea-pig auricles
  Chronotropic or inotropic effect, in words: did not show any chronotropic or inotropic effect
[3]; test compound in same concentration as terbutaline
  Potentiating or inhibiting effect on the chronotropic and inotropic effect of terbutaline: No potentiating or inhibiting effect
[4]
  ED50: 2.7 mg/kg and 6.7 µmol/kg
[4]; on molar basis, in words
  Bronchospasmolytic potency relative to terbutaline: less potent than the reference substance terbutaline
[5]; p.o., dogs
  Duration of terbutaline serum level of 2 ng/ml or more: ≥ 16 h
[5]; p.o., dogs, terbutaline 2 ng/ml serum or higher
  Duration of clinically useful serum level relative to terbutaline: at least twice as long
Heart rate in dogs; hydrochloride
  Increase in heart rate relative to terbutaline, in words: relatively much lower increase in heart rate than the reference compound terbutaline; also recorded: considerably reduced stimulating effect on the heart rate compared with the heart rate stimulating effect of terbutaline
Heart rate in dogs
  Slope of the line of increase in heart rate vs. logarithm of corresponding serum conc.: 0.63
  Correlation coefficient (increase in heart rate vs. logarithm of serum conc.): 0.9324
[6]; 5 minutes pretreatment, hydrochloride
  Potentiating or inhibiting effect of the test substance on the bronchodilating effect of terbutaline: none and No potentiating or inhibiting activity
[6]
  EC50: > 20000 nM
[6]; isolated guinea-pig trachea, hydrochloride
  Bronchodilating effect (intrinsic), in words: did not produce any bronchodilating effect; also recorded: did not exert any intrinsic bronchodilating effect
